Broadly, the pIC50 is −log10 of the IC50, conventionally taken in molar units.

pIC50: −log10 of the molar value.

We go through eight compounds from patent US20220388990A1, “INHIBITORS OF CYCLIN-DEPENDENT KINASES” (Kinnate Biopharma Inc., priority 2019, published 2022).

T1 sequence (Q9NYV4 whole entry, the tested form may be a part): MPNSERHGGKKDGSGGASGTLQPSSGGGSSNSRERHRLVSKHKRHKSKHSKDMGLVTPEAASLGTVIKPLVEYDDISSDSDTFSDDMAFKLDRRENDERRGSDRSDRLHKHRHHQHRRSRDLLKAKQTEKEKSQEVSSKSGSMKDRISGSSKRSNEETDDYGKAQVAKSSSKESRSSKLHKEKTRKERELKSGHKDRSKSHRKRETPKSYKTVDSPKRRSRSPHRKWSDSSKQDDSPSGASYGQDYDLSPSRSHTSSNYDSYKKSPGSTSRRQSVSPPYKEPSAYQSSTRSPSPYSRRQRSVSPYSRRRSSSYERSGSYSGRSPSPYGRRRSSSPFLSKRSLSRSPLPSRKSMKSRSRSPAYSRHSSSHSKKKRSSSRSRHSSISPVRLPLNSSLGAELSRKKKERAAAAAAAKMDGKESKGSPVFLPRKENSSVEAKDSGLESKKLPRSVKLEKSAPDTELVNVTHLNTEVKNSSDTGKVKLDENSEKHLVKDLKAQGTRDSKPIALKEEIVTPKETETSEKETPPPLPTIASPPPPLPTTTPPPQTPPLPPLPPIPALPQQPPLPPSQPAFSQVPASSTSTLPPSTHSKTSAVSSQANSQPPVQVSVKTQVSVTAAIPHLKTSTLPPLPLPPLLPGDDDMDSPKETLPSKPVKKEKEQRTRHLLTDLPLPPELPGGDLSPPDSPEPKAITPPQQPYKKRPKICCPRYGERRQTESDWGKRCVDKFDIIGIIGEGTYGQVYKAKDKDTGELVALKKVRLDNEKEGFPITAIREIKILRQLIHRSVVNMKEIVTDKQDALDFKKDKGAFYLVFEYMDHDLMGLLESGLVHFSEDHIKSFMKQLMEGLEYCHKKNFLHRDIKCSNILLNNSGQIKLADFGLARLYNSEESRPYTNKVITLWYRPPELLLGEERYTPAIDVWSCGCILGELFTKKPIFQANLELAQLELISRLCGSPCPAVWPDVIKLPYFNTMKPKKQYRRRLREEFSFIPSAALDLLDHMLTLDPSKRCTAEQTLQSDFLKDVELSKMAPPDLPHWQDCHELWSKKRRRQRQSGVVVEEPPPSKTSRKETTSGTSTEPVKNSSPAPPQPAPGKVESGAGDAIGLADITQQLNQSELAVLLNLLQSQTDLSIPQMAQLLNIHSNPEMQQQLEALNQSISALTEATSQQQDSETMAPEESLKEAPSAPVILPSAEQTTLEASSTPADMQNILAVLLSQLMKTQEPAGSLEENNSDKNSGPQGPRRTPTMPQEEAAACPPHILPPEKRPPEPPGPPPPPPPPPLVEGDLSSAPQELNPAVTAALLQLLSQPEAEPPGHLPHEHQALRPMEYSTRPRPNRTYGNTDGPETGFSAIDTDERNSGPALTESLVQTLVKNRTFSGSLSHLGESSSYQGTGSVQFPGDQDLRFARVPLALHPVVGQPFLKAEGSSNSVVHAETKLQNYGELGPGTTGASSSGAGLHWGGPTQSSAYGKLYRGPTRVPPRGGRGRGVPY
T1 sequence (O75909 whole entry partner, the tested form may be a part): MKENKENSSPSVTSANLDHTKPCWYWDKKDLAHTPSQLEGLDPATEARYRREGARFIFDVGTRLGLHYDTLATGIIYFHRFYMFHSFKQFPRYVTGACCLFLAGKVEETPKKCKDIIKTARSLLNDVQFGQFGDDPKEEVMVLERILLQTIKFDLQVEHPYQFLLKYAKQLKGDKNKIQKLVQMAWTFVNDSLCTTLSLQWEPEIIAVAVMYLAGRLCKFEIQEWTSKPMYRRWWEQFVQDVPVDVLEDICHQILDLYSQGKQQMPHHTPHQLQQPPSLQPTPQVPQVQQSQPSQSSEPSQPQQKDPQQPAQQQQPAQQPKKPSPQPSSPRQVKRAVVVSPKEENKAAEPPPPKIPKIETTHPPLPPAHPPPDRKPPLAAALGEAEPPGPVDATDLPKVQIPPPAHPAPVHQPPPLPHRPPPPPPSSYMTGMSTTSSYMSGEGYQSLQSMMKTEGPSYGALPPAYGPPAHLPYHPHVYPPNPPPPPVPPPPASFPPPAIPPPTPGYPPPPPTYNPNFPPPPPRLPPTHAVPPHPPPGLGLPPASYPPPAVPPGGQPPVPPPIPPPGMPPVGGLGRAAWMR

The first experiment concerns the target T1, CDK12 wt/CycK (Homo sapiens, UniProt Q9NYV4).
T1 construct: either as full-length or enzymatically active fragments
Description: Radiometric protein kinase assay (33PanQinase), assay condition 2, thiol containing conditions. The following applies: thiol containing conditions (1.2 mM DTT), ATP 0.3 μM. Format: biochemical. The protocol:
Example 1—Assay condition 2 (thiol containing conditions)
Objective: The IC50 profile of test compounds was determined using protein kinases. IC50 values were measured by testing 10 concentrations (1×10^−04M, 3×10^−05M, 1×10^−05M, 3×10^−06M, 1×10^−06M, 3×10^−07M, 1×10^−07M, 3×10^−08M, 1×10^−08M, and 3×10^−09M) of each compound in singlicate.
Test compounds: The compounds were provided as pre-weighed powders in vials. The compounds were dissolved to 1×10^−02M by adding DMSO. 100 μl of each of the resulting stock solutions were transferred into column 2 of four 96 well “master plates”
Prior to testing, the 1×10^−02M stock solutions in column 2 of the master plates were subjected to a serial, semi-logarithmic dilution using 100% DMSO as a solvent. […] Column 1 and 7 were filled with 100% DMSO as controls. Subsequently, 2×10 μl from each well of the serial diluted copy plates were aliquoted with a 96 channel pipettor into two identical sets of “compound dilution plates”.
In the process, 90 μl H2O were added to each well of a set of compound dilution plates. To minimize potential precipitation, the H2O was added to each plate only a few minutes before the transfer of the compound solutions into the assay plates. Each plate was shaken thoroughly, resulting in a “compound dilution plate/ 10% DMSO”.
For the assays, 5 μl solution from each well of the compound dilution plates/10% DMSO were transferred into the assay plates. The final volume of the assay was 50 μl. All compounds were tested at 10 final assay concentrations in the range from 1×10^−04M to 3×10^−09M, in singlicate. The final DMSO concentration in the reaction cocktails was 1% in all cases.
Recombinant protein kinases: All protein kinases were expressed in Sf9 insect cells or in E.coli as recombinant GST-fusion proteins or His-tagged proteins, either as full-length or enzymatically active fragments. All kinases were produced from human cDNAs and purified by either GSH-affinity chromatography or immobilized metal. Affinity tags were removed from a number of kinases during purification. The purity of the protein kinases was examined by SDS-PAGE/Coomassie staining, the identity was checked by mass spectroscopy.
Protein kinase assay: A radiometric protein kinase assay (^33PanQinase® Activity Assay) was used for measuring the kinase activity. All kinase assays were performed in 96-well FlashPlates™ from PerkinElmer (Boston, MA, USA) in a 50 μl reaction volume. The reaction cocktail was pipetted in four steps in the following order: • 20 μl of assay buffer (standard buffer) • 5μl of ATP solution (in H2O) • 5μl of test compound (in 10% DMSO) • 20 μl enzyme/substrate mix
The assay for all protein kinases contained 70 mM HEPES-NaOH pH 7.5, 3 mM MgCl2, 3 mM MnCl2, 3 μM Na-orthovanadate, 1.2 mM DTT, 50 μg/ml PEG20000, ATP (variable concentrations, corresponding to the apparent ATP-K. of the respective kinase), [γ-^33P]-ATP (approx. 9×10^05cpm per well), protein kinase, and substrate.
The following amounts of enzyme and substrate were used per well:
The reaction cocktails were incubated at 30° C. for 60 minutes. The reaction was stopped with 50 μl of 2% (v/v) H3PO4, plates were aspirated and washed two times with 200 μl 0.9% (w/v) NaCl. Incorporation of ^33Pi was determined with a microplate scintillation counter (Microbeta, Wallac). All assays were performed with a BeckmanCoulter/SAGIANTM Core System.
Evaluation of raw data: The median value of the counts in column 1 (n=8) of each assay plate was defined as “low control”. This value reflects unspecific binding of radioactivity to the plate in the absence of a protein kinase but in the presence of the substrate. The median value of the counts in column 7 of each assay plate (n=8) was taken as the “high control”, i.e. full activity in the absence of any inhibitor. The difference between high and low control was taken as 100% activity. […]
In turn, `C=CC(=O)Nc1ccc2c(N3CC[C@@H](Nc4ncc(C#N)cn4)C3)nc(OCC(F)(F)F)nc2c1` [Example 32, (R)—N-(4-(3-((5-cyanopyrimidin-2-yl)amino)pyrrolidin-1-yl)-2-(2,2,2-trifluoroethoxy)quinazolin-7-yl)acrylamide] gave a pIC50 of 6.00 to 7.00.

Consider `C=CC(=O)Nc1ccc2c(N3CC[C@@H](Nc4ncc(C#N)cn4)C3)nc(N3CCOCC3)cc2c1` [Example 37, (R)—N-(1-(3-((5-cyanopyrimidin-2-yl)amino)pyrrolidin-1-yl)-3-morpholinoisoquinolin-6-yl)acrylamide], for which the pIC50 was at least 7.00.

Consider `CC#CC(=O)Nc1ccc2c(N3CC[C@@H](Nc4ncc(Br)cn4)C3)nccc2c1` [Example 33, (R)—N-(1-(3-((5-bromopyrimidin-2-yl)amino)pyrrolidin-1-yl)isoquinolin-6-yl)but-2-ynamide], for which the pIC50 is at least 7.00.

`C=CC(=O)N(C)c1ccc2c(N3CC[C@@H](Nc4ncc(C#N)cn4)C3)nc(C)nc2c1` [Example 39, (R)—N-(4-(3-((5-cyanopyrimidin-2-yl)amino)pyrrolidin-1-yl)-2-methylquinazolin-7-yl)-N-methylacrylamide] gave a pIC50 of at least 7.00.

Regarding `C=CC(=O)N(C)c1ccc2c(N3CC[C@@H](Nc4ncc(C#N)cn4)C3)nccc2c1` [Example 36, (R)—N-(1-(3-((5-cyanopyrimidin-2-yl)amino)pyrrolidin-1-yl)isoquinolin-6-yl)-N-methylacrylamide], the pIC50 is at least 7.00.

Take `C=CC(=O)N(C)c1ccc2c(N3CC[C@@H](Nc4ncc(C#N)cn4)C3)nc(N3CCN(C)CC3)nc2c1` [Example 41, (R)—N-(4-(3-((5-cyanopyrimidin-2-yl)amino)pyrrolidin-1-yl)-2-(4-methylpiperazin-1-yl)quinazolin-7-yl)-N-methylacrylamide]: the negative logarithm of the IC50 (pIC50) was at least 7.00.

Take `C=CC(=O)N(C)c1ccc2c(N3CC[C@@H](Nc4ncc(C#N)cn4)C3)nc(C3=CCN(C)CC3)cc2c1` [Example 42, (R)—N-(1-(3-((5-cyanopyrimidin-2-yl)amino)pyrrolidin-1-yl)-3-(1-methyl-1,2,3,6-tetrahydropyridin-4-yl)isoquinolin-6-yl)-N-methylacrylamide]: the pIC50 was at least 7.00.

A further experiment has as its system panel of 1,151 cancer cell lines.
Assay: not given
The following applies: in 52% of 1,151 cancer cell lines; cited from earlier work.
Regarding `CN(C)C/C=C/C(=O)Nc1ccc(C(=O)Nc2cccc(Nc3ncc(Cl)c(-c4c[nH]c5ccccc45)n3)c2)cc1` [THZ1], the pIC50 was above 6.70.
